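Assay format: 96-well plates, 48-hour exposure. The concentration for 50% growth inhibition is given as GI50.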 Active and inactive are the calls of the source. Rule as the data show it: active = GI50 up to about 1.1 µM and inactive = higher.
How the values were obtained:
Assay in all cases: growth of human tumour cells (NCI), 48 h
[1] = system: A549
[2] = system: COLO 205
[3] = system: DU-145
[4] = system: HCT-15
[5] = system: HL-60
[6] = system: MCF7
[7] = system: MDA-MB-435
[8] = system: NCI-H522
[9] = system: NCI/ADR-RES
[10] = system: OVCAR-8
[11] = system: PC-3
[12] = system: RPMI-8226
[13] = system: SK-MEL-2
[14] = system: SK-MEL-5
[15] = system: SK-OV-3
[16] = system: SW-620
[17] = system: T47D
[18] = system: U-251
[19] = system: UACC-62
[20] = system: UO-31

Measured: GI50

O=C(O)Cc1ccc(Oc2nc3ccccc3nc2-c2cccs2)cc1
35.3 µM: [4]
inactive: [1] 46.7 µM | [2] 31 µM | [3] 81.7 µM | [5] 55.8 µM | [6] 38.5 µM | [7] 92 µM | [8] 65.2 µM | [9] 60.5 µM | [10] 71.9 µM | [11] 46.3 µM | [12] 33.1 µM | [13] 84.1 µM | [14] 72.9 µM | [15] > 100 µM | [16] > 100 µM | [17] 20 µM | [18] 30.5 µM | [19] 58.1 µM | [20] 37.3 µM

Cc1sc2nc(-c3ccc([N+](=O)[O-])cc3)c(/C=N/N=C(N)N)n2c1C
1.35 µM: [4]
active: [2] 0.251 µM | [5] 1.1 µM | [6] 0.555 µM | [7] 0.979 µM | [10] 0.53 µM | [12] 0.468 µM | [13] 0.457 µM | [16] 0.195 µM | [17] 0.664 µM | [18] 0.179 µM
inactive: [1] 1.45 µM | [3] 1.27 µM | [8] 1.32 µM | [9] 2.76 µM | [11] 1.28 µM | [14] 1.38 µM | [15] 1.7 µM | [19] 1.73 µM | [20] 1.62 µM

CNC1=C(C)C(=O)C(O)=C([C@H](C)CCC=C(C)C)C1=O
inactive: [1] 20.3 µM | [2] 25.4 µM | [3] 30.6 µM | [5] 2.4 µM | [6] 37.2 µM | [7] 29.6 µM | [8] 3.77 µM | [9] 5.21 µM | [10] 10.7 µM | [11] 22.6 µM | [12] 2.94 µM | [13] 17.7 µM | [14] 14.4 µM | [15] 23.9 µM | [16] 23.9 µM | [17] 25.4 µM | [18] 27.7 µM | [19] 13 µM | [20] 9.82 µM
6.92 µM: [4]

Cc1oc(N)c(S(=O)(=O)c2ccc(Cl)cc2)c1C
34 µM: [4]
inactive: [1] 34.4 µM | [2] > 10 µM | [3] > 100 µM | [5] 88.9 µM | [6] 50.4 µM | [7] 55.3 µM | [8] 30 µM | [9] 34.9 µM | [10] 50.5 µM | [11] 23.7 µM | [12] 40.2 µM | [13] 28 µM | [14] 44.7 µM | [15] 42.6 µM | [16] > 100 µM | [17] 31.2 µM | [18] > 100 µM | [19] 37.9 µM | [20] 37 µM

COC1=CC(=O)c2c(c(COP(=O)(N(C)CCBr)N(C)CCBr)cn2C)C1=O
< 0.0234 µM: [4]
inactive: [17] 1.31 µM
active: [1] < 0.01 µM | [2] 0.0521 µM | [3] 0.0134 µM | [5] < 0.01 µM | [6] < 0.01 µM | [7] 0.0588 µM | [8] 0.138 µM | [9] 0.134 µM | [10] < 0.0264 µM | [11] 0.643 µM | [12] 0.0323 µM | [13] 0.15 µM | [14] 0.0836 µM | [15] 0.121 µM | [16] < 0.0109 µM | [18] < 0.0225 µM | [19] < 0.0333 µM | [20] < 0.0261 µM

C=C(Br)CNCC(=C)Br
inactive: [1] > 100 µM | [2] 52 µM | [3] > 100 µM | [5] 26.7 µM | [6] > 100 µM | [7] > 100 µM | [8] > 100 µM | [9] > 100 µM | [10] > 100 µM | [11] 50.5 µM | [12] 51.9 µM | [13] > 100 µM | [14] 89.7 µM | [15] > 100 µM | [16] > 100 µM | [17] > 100 µM | [18] > 100 µM | [19] > 100 µM | [20] > 100 µM
> 100 µM: [4]

N#CCCN(CCCN(C(=O)N(c1ccccc1)c1ccccc1)c1ccccc1)C(=O)Nc1ccccc1
> 100 µM: [4]
inactive: [1] 18.9 µM | [2] > 10 µM | [3] > 100 µM | [5] 8.91 µM | [6] 18.2 µM | [7] > 100 µM | [8] 58.3 µM | [9] 30.1 µM | [10] 21.5 µM | [11] 18.7 µM | [12] 94 µM | [13] > 100 µM | [14] 24.9 µM | [15] > 100 µM | [16] > 100 µM | [17] 64.9 µM | [18] 92 µM | [19] > 100 µM | [20] 67 µM

c1ccc(/C(=N/Nc2ccccn2)c2ncccn2)cc1
inactive: [1] 3.62 µM | [3] 3.99 µM | [7] 2.77 µM | [9] 1.43 µM | [11] 9.16 µM | [12] 1.39 µM | [13] > 28 µM | [15] 2.3 µM | [18] 2.07 µM | [19] 2.82 µM
0.526 µM: [4]
active: [2] < 0.0139 µM | [5] 0.0524 µM | [6] 0.175 µM | [8] < 0.0172 µM | [10] 0.369 µM | [14] 0.745 µM | [16] 0.0982 µM | [17] 0.0346 µM | [20] 0.617 µM

Oc1ccc(Cl)cc1/C=N/c1cnc2ccccc2c1
inactive: [1] > 92.7 µM | [2] 53.8 µM | [3] 41.5 µM | [5] 4.56 µM | [6] 22.6 µM | [7] 36.7 µM | [8] > 86.7 µM | [9] 27.7 µM | [10] 27 µM | [11] 14.3 µM | [12] 13.1 µM | [13] 27.2 µM | [14] 27.5 µM | [15] 33.3 µM | [16] 24.8 µM | [17] 4.81 µM | [18] 11.9 µM | [19] 32.7 µM | [20] 45.6 µM
4.4 µM: [4]

Nc1ccc(S(=O)(=O)Nc2cnc3c(Cl)cccc3n2)cc1 [CHLORSULFAQUINOXALINE]
53 µM: [4]
inactive: [1] 117 µM | [2] 23.9 µM | [3] 175 µM | [5] 167 µM | [6] 101 µM | [7] > 70 µM | [8] 29 µM | [9] 47.5 µM | [10] 144 µM | [11] 86.1 µM | [12] 129 µM | [13] 226 µM | [14] 144 µM | [15] > 33 µM | [16] 26.1 µM | [17] 96.2 µM | [18] 207 µM | [19] 36.7 µM | [20] 151 µM

S=C1SC(=N\c2ccccc2)/C(=N/c2ccccc2)N1c1ccc2ccccc2c1
inactive: [2] > 100 µM | [3] > 100 µM | [5] > 100 µM | [6] > 100 µM | [7] > 100 µM | [8] > 100 µM | [9] > 100 µM | [10] > 100 µM | [11] > 100 µM | [12] > 100 µM | [13] > 100 µM | [14] 38.1 µM | [15] > 100 µM | [17] > 100 µM | [18] > 100 µM | [19] > 100 µM | [20] > 100 µM
93.3 µM: [4]
